Where two headings read alike, the source gives them in different places.
Assays:
[1] = biological target: T1, μ opioid receptor (Homo sapiens, UniProt P35372); experiment: μ-receptor [35S]GTPγS functional assay; format: biochemical; conditions: for Emax: maximal effect relative to DAMGO, read-out: μ GTP Emax
Experimental: [^35S]GTPγS functional assays are conducted using freshly thawed ORL-1 or μ-receptor membranes, as appropriate. Assay reactions are prepared by sequentially adding the following reagents to binding buffer (100 mM NaCl, 10 mM MgCl2, 20 mM HEPES, pH 7.4) on ice (final concentrations indicated): membrane protein (0.066 mg/mL for ORL-1 receptor and 0.026 mg/mL for μ-receptor), saponin ([…]), GDP ([…]) and [^35S]GTPγS (0.20 nM; NEN). Aliquots of the prepared membrane solution (190 μL/well) are transferred to 96-shallow well polypropylene plates containing 10 μL of 20× concentrated stock solutions of the agonist nociceptin prepared in dimethyl sulfoxide (“DMSO”). Plates are incubated for 30 min at room temperature with shaking. Reactions are terminated by rapid filtration onto 96-well Unifilter GF/B filter plates (Packard, Meriden, Conn.) using a 96-well tissue harvester (Brandel, Gaithersburg, Md.) followed by three filtration washes with 200 μL of ice-cold binding buffer (10 mM NaH2PO4, 10 mM Na2HPO4, pH 7.4). Filter plates are subsequently dried at 50° C. for 2-3 h. BetaScint scintillation cocktail (Wallac, Turku, Finland) is added (50 μL/well) and plates are counted using a Packard Top-Count for 1 min/well. Data are analyzed using the sigmoidal dose-response curve fitting functions in GraphPad PRISM, v. 3.0.
μ GTP EC50 is the concentration of a compound providing 50% of the maximal response for the compound at a μ receptor.
μ GTP Emax % is the maximal effect elicited by a compound relative to the effect elicited by [D-Ala2, N-methyl-Phe4, Gly-ol5]-enkephalin (“DAMGO”), a standard μ agonist. Generally, the μ GTP Emax (%) value measures the efficacy of a compound to treat or prevent pain or diarrhea.

[2] = biological target: T1, μ opioid receptor; experiment: μ-opioid receptor radioligand dose-displacement binding assay ([3H]-diprenorphine)
Experimental: (§1) Radioligand dose-displacement binding assays for ORL-1 and μ receptors use 0.1 nM [^3H]-nociceptin or 0.2 nM [^3H]-diprenorphine (NEN, Boston, Mass.), respectively, with […] membrane protein/well in a final volume of […] binding buffer (10 mM MgCl2, 1 mM EDTA, 5% DMSO, 50 mM HEPES, pH 7.4). Reactions are carried out in the absence or presence of increasing concentrations of unlabeled nociceptin (American Peptide Company, Sunnyvale, Calif.) or naloxone, for ORL-1 and […], respectively. All reactions are conducted in 96-deep well polypropylene plates for 1-2 h at room temperature. Binding reactions are terminated by rapid filtration onto 96-well Unifilter GF/C filter plates (Packard, Meriden, Conn.) presoaked in 0.5% polyethylenimine using a 96-well tissue harvester (Brandel, Gaithersburg, Md.) followed by three filtration washes with 500 μL of ice-cold binding buffer. Filter plates are subsequently dried at 50° C. for 2-3 h. BetaScint scintillation cocktail (Wallac, Turku, Finland) is added (50 μl/well), and plates are counted using a Packard Top-Count for 1 min/well. The data are analyzed using the one-site competition curve fitting functions in GraphPad PRISM v. 3.0 (San Diego, Calif.).

[3] = biological target: T2, kappa opioid receptor (Homo sapiens, UniProt P41145); experiment: κ opioid receptor functional [35S]GTPγS binding assay; format: biochemical; conditions: for Emax: maximal effect relative to U69,593, read-out: κ GTP Emax
T2 construct: expressed in transfected cells; host or cells: HEK-293
Experimental: κ GTP EC50 is the concentration of a compound providing 50% of the maximal response for the compound at an K receptor.
κ GTP Emax % is the maximal effect elicited by a compound relative to the effect elicited by U69,593.
(§2) The κ and δ opioid receptor functional [^35S]GTPγS binding assays were conducted as follows. Kappa or delta opioid receptor membrane solution was prepared by sequentially adding final concentrations of 0.026 μg/μl membrane protein (kappa: in-house, delta: Perkin Elmer), 10 μg/ml saponin, 3 μM GDP and 0.20 nM [^35S]GTPγS to binding buffer (100 mM NaCl, 10 mM MgCl2, 20 mM HEPES, pH 7.4) on ice. The prepared membrane solution (190 μl/well) was transferred to 96-shallow well polypropylene plates containing 10 μl of 20× concentrated stock solutions of agonist prepared in DMSO. Plates were incubated for 30 min at room temperature with shaking. Reactions were terminated by rapid filtration onto 96-well tissue harvester (Packard) and followed by three filtration washes with 200 μl ice-cold binding buffer (10 mM NaH2PO4), 10 mM Na2HPO4, pH 7.4). Filter plates were subsequently dried at 50° C. for 2-3 hours. Fifty μl/well scintillation cocktail (MicroScint20, Packard) was added and plates were counted in a Packard Top-Count for 1 min/well.

[4] = biological target: T2, kappa opioid receptor; experiment: κ opioid receptor binding assay ([3H]-U69,593)
Experimental: Membranes from recombinant HEK-293 cells expressing the human kappa opioid receptor (kappa) (cloned in house) were prepared by lysing cells in ice cold hypotonic buffer (2.5 mM MgCl2, 50 mM HEPES, pH 7.4) (10 ml/10 cm dish) followed by homogenization with a tissue grinder/teflon pestle. Membranes were collected by centrifugation at 30,000×g for 15 min at 4° C. and pellets resuspended in hypotonic buffer to a final concentration of 1-3 mg/ml. Protein concentrations were determined using the BioRad protein assay reagent with bovine serum albumen as standard. Aliquots of kappa receptor membranes were stored at −80° C.
Radioligand dose displacement assays used 0.4-0.8 nM [^3H]-U69,593 (NEN; 40 Ci/mmole) with 10-20 μg membrane protein (recombinant kappa opioid receptor expressed in HEK 293 cells; in-house prep) in a final volume of 200 μl binding buffer (5% DMSO, 50 mM Trizma base, pH 7.4). Non-specific binding was determined in the presence of 10 μM unlabeled naloxone or U69,593. All reactions were performed in 96-well polypropylene plates for 1 h at room temperature. Binding reactions were determined by rapid filtration onto 96-well Unifilter GF/C filter plates (Packard) presoaked in 0.5% polyethylenimine (Sigma). Harvesting was performed using a 96-well tissue harvester (Packard) followed by five filtration washes with 200 μl ice-cold binding buffer. Filter plates were subsequently dried at 50° C. for 1-2 hours. Fifty μl/well scintillation cocktail (MicroScint; Packard) was added and plates were counted in a Packard Top-Count for 1 min/well.

[5] = biological target: T3, delta opioid receptor (Homo sapiens, UniProt P41143); experiment: δ opioid receptor binding assay ([3H]-Naltrindole)
T3 construct: purchased Perkin Elmer; host or cells: CHO-K1
Experimental: Radioligand dose-displacement assays used 0.2 nM [^3H]-Naltrindole (NEN; 33.0 Ci/mmole) with 10-20 μg membrane protein (recombinant delta opioid receptor expressend in CHO-K1 cells; Perkin Elmer) in a final volume of 500 μl binding buffer (5 mM MgCl2, 5% DMSO, 50 mM Trizma base, pH 7.4). Non-specific binding was determined in the presence of 25 μM unlabeled naloxone. All reactions were performed in 96-deep well polypropylene plates for 1 h at room temperature. Binding reactions were determined by rapid filtration onto 96-well Unifilter GF/C filter plates (Packard) presoaked in 0.5% polyethylenimine (Sigma). Harvesting was performed using a 96-well tissue harvester (Packard) followed by five filtration washes with 500 μl ice-cold binding buffer. Filter plates were subsequently dried at 50° C. for 1-2 hours. Fifty μl/well scintillation cocktail (MicroScint, Packard) was added and plates were counted in a Packard Top-Count for 1 min/well.

[6] = biological target: T4, human opioid receptor-like (ORL-1) receptor (Homo sapiens, UniProt P41146); experiment: ORL-1 receptor radioligand dose-displacement binding assay ([3H]-nociceptin)
T4 construct: host or cells: HEK-293
Experimental: All reagents are obtained from Sigma (St. Louis, Mo.) unless noted otherwise. Membranes from recombinant HEK-293 cells expressing the human opioid receptor-like (ORL-1) receptor (Perkin Elmer, Boston, Mass.) are prepared by lysing cells in ice-cold hypotonic buffer (2.5 mM MgCl2, 50 mM HEPES, pH 7.4) (10 mL/10 cm dish), followed by homogenization with a tissue grinder/teflon pestle. Membranes are collected by centrifugation at 30,000×g for 15 min at 4° C., and pellets are resuspended in hypotonic buffer to a final concentration of 1-3 mg/mL. Protein concentrations are determined using the BioRad (Hercules, Calif.) protein assay reagent with bovine serum albumen as standard. Aliquots of the ORL-1 receptor membranes are stored at −80° C.
as §1

[7] = biological target: T3, delta opioid receptor; experiment: δ opioid receptor functional [35S]GTPγS binding assay; format: biochemical; conditions: for Emax: maximal effect relative to met-enkephalin, read-out: δ GTP Emax
Experimental: δ GTP EC50 is the concentration of a compound providing 50% of the maximal response for the compound at an δ receptor.
δ GTP Emax % is the maximal effect elicited by a compound relative to the effect elicited by met-enkephalin.
as §2

[8] = biological target: T5, ORL-1 receptor (Homo sapiens, UniProt P41146); experiment: ORL-1 receptor [35S]GTPγS functional assay; format: biochemical
T5 construct: host or cells: HEK-293
Experimental: Filter plates are subsequently dried at 50° C. for 2-3 h. […] 3.0.

[9] = Ki for binding to μ-opioid receptors

T1 sequence (P35372 whole entry): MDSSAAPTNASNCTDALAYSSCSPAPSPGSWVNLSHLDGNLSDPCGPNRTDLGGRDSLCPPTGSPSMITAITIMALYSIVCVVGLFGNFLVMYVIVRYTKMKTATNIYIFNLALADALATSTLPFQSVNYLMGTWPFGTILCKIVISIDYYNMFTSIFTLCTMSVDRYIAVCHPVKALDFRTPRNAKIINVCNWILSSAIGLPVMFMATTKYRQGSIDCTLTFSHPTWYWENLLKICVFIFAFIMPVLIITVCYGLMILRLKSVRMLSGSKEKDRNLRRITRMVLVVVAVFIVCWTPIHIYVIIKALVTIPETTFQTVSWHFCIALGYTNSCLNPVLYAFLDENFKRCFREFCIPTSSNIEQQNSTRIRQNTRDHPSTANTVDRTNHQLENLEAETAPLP
T2 sequence (P41145 whole entry): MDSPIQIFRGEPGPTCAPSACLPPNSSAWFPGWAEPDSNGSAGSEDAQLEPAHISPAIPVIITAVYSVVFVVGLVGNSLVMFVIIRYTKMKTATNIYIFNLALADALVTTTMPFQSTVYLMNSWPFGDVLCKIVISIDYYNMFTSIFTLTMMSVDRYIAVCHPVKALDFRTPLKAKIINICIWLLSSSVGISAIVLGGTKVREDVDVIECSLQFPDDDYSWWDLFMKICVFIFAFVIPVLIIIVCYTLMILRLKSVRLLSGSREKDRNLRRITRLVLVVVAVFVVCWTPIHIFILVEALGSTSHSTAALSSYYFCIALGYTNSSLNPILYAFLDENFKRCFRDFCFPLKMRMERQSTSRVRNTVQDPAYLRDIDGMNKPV
T3 sequence (P41143 whole entry): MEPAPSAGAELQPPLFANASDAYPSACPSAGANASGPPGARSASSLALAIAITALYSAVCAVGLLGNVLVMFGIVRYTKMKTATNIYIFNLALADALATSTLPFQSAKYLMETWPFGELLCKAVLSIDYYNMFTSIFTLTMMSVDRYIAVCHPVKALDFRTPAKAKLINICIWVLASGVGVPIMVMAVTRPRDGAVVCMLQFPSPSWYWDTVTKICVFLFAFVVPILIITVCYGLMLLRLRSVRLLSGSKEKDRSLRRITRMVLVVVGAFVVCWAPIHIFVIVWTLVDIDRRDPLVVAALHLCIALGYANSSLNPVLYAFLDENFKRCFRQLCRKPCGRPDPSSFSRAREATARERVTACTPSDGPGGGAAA
T4 sequence (P41146 whole entry): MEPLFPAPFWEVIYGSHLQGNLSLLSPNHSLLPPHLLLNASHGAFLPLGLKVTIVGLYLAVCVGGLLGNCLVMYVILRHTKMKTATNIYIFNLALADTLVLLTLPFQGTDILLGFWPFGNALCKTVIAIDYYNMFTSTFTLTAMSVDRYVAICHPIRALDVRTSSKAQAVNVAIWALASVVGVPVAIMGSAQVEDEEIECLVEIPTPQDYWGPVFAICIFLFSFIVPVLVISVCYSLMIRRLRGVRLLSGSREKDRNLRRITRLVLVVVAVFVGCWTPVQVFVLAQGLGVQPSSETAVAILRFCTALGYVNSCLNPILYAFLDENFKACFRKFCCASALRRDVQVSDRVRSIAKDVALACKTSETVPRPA
T5 sequence (P41146 whole entry): as above

Structure (SMILES) | Emax [1] | EC50 ([1]; read-out: μ GTP EC50) | Ki ([2]; read-out: Ki for binding to μ-opioid receptors) | Ki ([2]; read-out: μ Ki) | Emax [3] | EC50 ([3]; read-out: κ GTP EC50) | Ki ([4]; read-out: κ Ki) | Ki ([5]; read-out: δ Ki) | Ki [6] | Emax [7] | EC50 ([7]; read-out: δ GTP EC50) | EC50 [1] | Ki [2, 9] | Ki ([2]; μ Ki) | EC50 [3] | Ki [4] | Ki [5] | EC50 [8] | Emax ([8]; maximal effect relative to nociceptin, read-out: ORL1 GTP Emax) | EC50 [7]
CCOC(=O)Cc1nc(C2(c3ccccc3)CCN(CCC(C(=O)N3CCCC3)(c3ccccc3)c3ccccc3)CC2)no1 [AGE] | 103% | 2.03 nM | 1.3 nM | 1.29 nM | 56% | 704 nM | 91.9 nM | 341 nM | 3850 nM | 104% | 21.5 nM | – | – | – | – | – | – | – | – | –
CCOC(=O)Cc1nc(C2(c3ccccc3)CCN(CCC(C(=O)N(C)C)(c3ccccc3)c3ccccc3)CC2)no1 [AFL] | 117% | – | – | – | 52.7% | – | – | – | 696 nM | 114% | – | 1.04 nM | 1.1 nM | 1.11 nM | 1680 nM | 32.9 nM | 223 nM | > 20000 nM | 28% | 84 nM
CN(C)C(=O)C(CCN1CCC(c2ccccc2)(c2noc(CC(N)=O)n2)CC1)(c1ccccc1)c1ccccc1 [AFE] | 116% | – | – | – | 44.7% | – | – | – | 1840 nM | – | – | 16.1 nM | 5.9 nM | 5.92 nM | 1260 nM | 152 nM | 3620 nM | – | – | –
NC(=O)Cc1nc(C2(c3ccccc3)CCN(CCC(C(=O)N3CCCC3)(c3ccccc3)c3ccccc3)CC2)no1 [AFX] | 90% | – | – | – | 41.7% | – | – | – | 1290 nM | – | – | 8.09 nM | 4.8 nM | 4.82 nM | 3830 nM | 365 nM | 2320 nM | – | – | –

Reference: US20080319020A1, “4-Oxadiazolyl-Piperidine Compounds and Use Thereof” (Purdue Pharma L.P., priority 2005, published 2008)
